In the supplement of paper PMC8967900:

How the values were obtained:
Experiment in all cases: selective drug sensitivity score (sDSS, relative to normal bone marrow) (sDSS (score)); higher = more potent and effective on the cell line relative to normal bone marrow cells
Conditions in all cases: 72 h
MOLT-14 = system: MOLT-14
RPMI-8402 = system: RPMI-8402
HPB-ALL = system: HPB-ALL
MOLT-4 = system: MOLT-4
KARPAS-45 = system: KARPAS-45
TANOUE = system: TANOUE
LC4-1 = system: LC4-1
REH = system: REH
P12-ICHIKAWA = system: P12-ICHIKAWA
RCH-ACV = system: RCH-ACV
TMD5 = system: TMD5
COG-LL-317 = system: COG-LL-317
COG-LL-319h = system: COG-LL-319h
NALM-6 = system: NALM-6
COG-LL-355h = system: COG-LL-355h
MOLT-16 = system: MOLT-16
ALL-SIL = system: ALL-SIL
DND-41 = system: DND-41
PEER = system: PEER
SEM cells = system: SEM cells
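Also: ALL cell lines in 384-well plates, five doses spanning 10,000-fold, each plate scaled between vehicle and 100 µmol/L benzalkonium chloride controls, sDSS an adapted area-under-curve metric.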

Row | Structure (SMILES) | selective drug sensitivity score (MOLT-14) | selective drug sensitivity score (RPMI-8402) | selective drug sensitivity score (HPB-ALL) | selective drug sensitivity score (MOLT-4) | selective drug sensitivity score (KARPAS-45) | selective drug sensitivity score (TANOUE) | selective drug sensitivity score (LC4-1) | selective drug sensitivity score (REH) | selective drug sensitivity score (P12-ICHIKAWA) | selective drug sensitivity score (RCH-ACV) | selective drug sensitivity score (TMD5) | selective drug sensitivity score (COG-LL-317) | selective drug sensitivity score (COG-LL-319h) | selective drug sensitivity score (NALM-6) | selective drug sensitivity score (COG-LL-355h) | selective drug sensitivity score (MOLT-16) | selective drug sensitivity score (ALL-SIL) | selective drug sensitivity score (DND-41) | selective drug sensitivity score (PEER) | selective drug sensitivity score (SEM cells)
1 | CCCCCOC(=O)Nc1nc(=O)n([C@@H]2O[C@H](C)[C@@H](O)[C@H]2O)cc1F [Capecitabine] (top concentration 10000 nM) | -0.06 | -0.06 | 0.64 | -0.06 | -0.06 | -0.06 | -0.06 | -0.06 | -0.06 | -0.06 | -0.06 | -0.06 | -0.06 | -0.06 | -0.06 | -0.06 | -0.06 | 1.84 | -0.06 | 0.04
2 | Nc1nc(Cl)nc2c1ncn2[C@H]1C[C@H](O)[C@@H](CO)O1 [Cladribine] (top concentration 1000 nM) | 5.66 | -4.74 | -9.34 | -7.74 | -15.7 | -16 | 6.26 | -2.64 | -5.24 | 5.76 | -16 | 1.06 | 7.76 | 0.46 | 0.16 | 1.06 | 9.36 | 1.16 | -12.2 | 3.96
3 | CCN(CC)CCOc1ccc(/C(=C(/Cl)c2ccccc2)c2ccccc2)cc1 [Clomifene] (top concentration 10000 nM) | -0.28 | 0.32 | -0.78 | -1.08 | 1.22 | -2.98 | 4.62 | 0.72 | 0.32 | 3.22 | 1.32 | 0.22 | -0.48 | -0.28 | 0.52 | 0.92 | 0.12 | 1.62 | 1.02 | 2.32
4 | CO[C@@H](C(=O)N1Cc2[nH]nc(NC(=O)c3ccc(N4CCN(C)CC4)cc3)c2C1)c1ccccc1 [Danusertib] (top concentration 10000 nM) | 15.5 | 6.54 | 5.54 | 14.5 | 8.94 | -9.16 | 19.9 | 16.5 | 21.7 | 17.9 | 14.5 | 19.4 | 19 | 12.5 | 3.04 | 22.4 | 22.8 | -1.36 | 21.6 | 19.2
5 | CC[C@@](C)(Nc1ccnc(-c2c[nH]c3ncccc23)n1)C(=O)NCC(F)(F)F [Decernotinib] (top concentration 10000 nM) | -3.94 | -3.44 | -3.94 | -3.94 | -3.94 | -3.94 | -3.94 | -3.94 | -3.94 | -3.14 | -1.74 | -3.94 | -3.94 | -3.94 | -3.94 | -3.94 | -2.44 | -2.64 | -3.84 | -2.74
6 | CN1CCN(c2ccc3nc(-c4c(N)c5c(F)cccc5[nH]c4=O)[nH]c3c2)CC1 [Dovitinib] (top concentration 10000 nM) | 0.46 | -0.14 | -0.14 | -0.14 | 0.26 | -0.14 | 0.06 | -0.14 | -0.14 | 0.46 | -0.14 | -0.04 | -0.14 | -0.14 | 3.66 | -0.14 | -0.14 | 0.16 | 0.66 | 10.1
7 | CC(C)(O)CNc1nc(Nc2ccnc(C(F)(F)F)c2)nc(-c2cccc(C(F)(F)F)n2)n1 [Enasidenib] (top concentration 10000 nM) | -0.8 | 0.4 | -0.5 | -0.8 | 4.1 | -0.8 | 3.9 | -0.8 | 0.2 | 2.2 | -0.8 | 0.8 | 2 | -0.8 | -0.6 | 0.1 | 1.8 | 0.4 | 0.6 | 2.3
8 | CN1CCN(c2ccc(C(=O)Nc3n[nH]c4ccc(Cc5cc(F)cc(F)c5)cc34)c(NC3CCOCC3)c2)CC1 [Entrectinib] (top concentration 1000 nM) | -0.7 | -1.2 | -1.2 | -1.2 | -0.9 | -1.2 | -1.2 | -1.2 | -1.2 | -1.2 | -0.5 | -0.7 | -1.2 | -1.2 | 1.5 | -1.2 | -0.6 | -1.2 | 0.9 | 3.5
9 | CNC(=O)c1ccc(N2C(=S)N(c3ccc(C#N)c(C(F)(F)F)c3)C(=O)C2(C)C)cc1F [Enzalutamide] (top concentration 10000 nM) | -0.02 | 0.48 | 8.28 | -0.82 | -0.82 | -0.32 | 0.28 | -0.82 | -0.42 | -0.72 | -0.82 | 1.18 | 1.58 | 0.68 | -0.82 | 1.48 | -0.82 | 1.58 | 0.48 | -0.82
10 | Cn1cc(C2=C(c3cn(C4CCN(Cc5ccccn5)CC4)c4ccccc34)C(=O)NC2=O)c2ccccc21 [Enzastaurin] (top concentration 10000 nM) | 6.06 | 5.86 | -0.24 | 6.26 | 4.86 | 2.46 | 3.26 | 3.66 | 4.66 | 2.36 | 0.06 | 7.26 | 2.26 | 5.26 | 6.76 | 4.66 | 3.96 | 4.56 | 6.66 | 6.76
11 | NS(=O)(=O)NCCNc1nonc1/C(=N/O)Nc1ccc(F)c(Br)c1 [Epacadostat] (top concentration 10000 nM) | -0.26 | 0.54 | -0.16 | -0.16 | -0.26 | -0.26 | -0.26 | 3.34 | -0.26 | -0.26 | 4.44 | 1.14 | -0.26 | -0.26 | -0.26 | -0.06 | -0.26 | -0.26 | 0.14 | 8.34
12 | CCOc1ccccc1-n1c(C(C)N2CCN(C(=O)COc3ccc(Cl)cc3)CC2)nc2ccccc2c1=O (stereo not given) [Erastin] (top concentration 10000 nM) | 8.54 | -5.96 | 6.54 | -2.26 | 8.24 | -9.96 | 16 | 7.04 | 7.94 | 17.6 | 7.04 | 11.2 | 19.3 | 7.44 | 14.4 | 23 | 6.94 | 7.14 | 7.94 | 6.34
13 | COc1cc(OC)cc(N(CCNC(C)C)c2ccc3ncc(-c4cnn(C)c4)nc3c2)c1 [Erdafitinib] (top concentration 1000 nM) | -0.56 | -0.56 | 1.64 | -0.56 | -0.06 | -0.56 | -0.56 | 0.44 | -0.56 | 2.04 | 4.74 | -0.56 | 0.44 | -0.56 | -0.56 | -0.56 | 2.74 | -0.26 | -0.36 | 0.24
14 | CC(C)(C)NC(=O)[C@H]1CC[C@H]2[C@@H]3CC[C@H]4NC(=O)C=C[C@]4(C)[C@H]3CC[C@]12C [Finasteride] (top concentration 10000 nM) | -0.52 | -0.52 | 0.28 | -0.52 | -0.52 | -0.52 | 2.08 | -0.52 | -0.52 | -0.52 | 0.58 | -0.52 | -0.42 | -0.52 | -0.52 | -0.52 | 1.78 | 2.98 | -0.52 | 1.48
15 | O=c1[nH]c(=O)n([C@H]2C[C@H](O)[C@@H](CO)O2)cc1F [Floxuridine] (top concentration 10000 nM) | 27.1 | 26 | 1.12 | 26.6 | -1.38 | 2.92 | 36.2 | 25.8 | 30.4 | 39.1 | -1.98 | 32.4 | 26.8 | 24.2 | 6.52 | 32.8 | 18.3 | 21 | 14.2 | 31.5
16 | CNc1nc(Nc2cn(C(C)(C)C#N)nc2C)ncc1C(F)(F)F [GNE-0877] (top concentration 1000 nM) | 0 | 0 | 0 | 0 | 0 | 0 | 0 | 0.8 | 0 | 0 | 0 | 0 | 0 | 0 | 0 | 0 | 0 | 0 | 0 | 0
17 | CCCc1cc(C)[nH]c(=O)c1CNC(=O)c1cc(-c2ccnc(N3CCN(C)CC3)c2)cc2c1cnn2C(C)C [GSK343] (top concentration 1000 nM) | 2 | 0 | 0 | 0 | 0 | 0 | 0 | 0 | 0 | 0 | 0 | 0 | 0 | 0 | 0 | 0 | 0 | 0 | 0 | 0
18 | O=C(O)c1ccc(O)c2ncccc12 [IOX-1] (top concentration 100000 nM) | 5.64 | 2.64 | 2.94 | 3.34 | 4.04 | 2.24 | 3.24 | 2.54 | 4.34 | 3.74 | 0.64 | 4.54 | 2.94 | 3.74 | 3.24 | 3.74 | 6.24 | 6.24 | 4.34 | 1.84
